Assay results published in PMC6488552, “Pharmacokinetic and Pharmacodynamic Properties of a Micro-Dose Nasal Spray Formulation of Desmopressin (AV002) in Healthy Water-Loaded Subjects” (Pharmaceutical Research, 2019).

How the values were obtained:
[1] = clinical; details: human, in vivo
Method: Each subject was dosed 4 times over 1 week with dosing occurring every other day. Doses of AV002 were administered at 0.5, 1.0, and 2.0 μg intranasally.
On Days 1, 3 and 5, subjects were dosed intranasally with escalating doses of AV002 nasal spray. On Day 7, 6 subjects were given a single SC bolus injection of desmopressin. Pharmacodynamic and pharmacokinetic metrics were evaluated at each dose level.
Plasma samples were analyzed using a validated radioimmunoassay assay (Celerion Switzerland AG) for desmopressin with a lower limit of quantification (LLOQ) of 2.5 pg/mL and upper limit of quantitation of 160 pg/mL. A 1.25 pg/mL calibration standard was included in the assay runs and concentrations between 1.25 and 2.5 pg/mL were reported out even though they were below the nominal LLOQ.
Pharmacokinetic variables were generally analyzed using model-independent methods. A single compartment model with first order absorption was used to qualitatively assess the impact of probable pharmacokinetic behavior of desmopressin when concentrations declined below the assay lower limit of quantification.
Pharmacokinetic calculations were performed using built in functions in the Excel 2003 component of Microsoft Office 2003 (Microsoft, Redmond, WA). The correctness of the calculation techniques was confirmed by comparison to output from WinNonlin 4.0.1 (Pharsight Corporation, Sunnyvale, CA). Summary statistics, graphs and figures were generated using built in functions and features of Excel 2003.
Pharmacokinetic samples were collected at pre-dose and 0.083, 0.167, 0.25, 0.50, 0.75, 1.05, 1.50, 2.05, 3.05, 4.05, and 6.05 h post dose each dosing day.

[2] = in vivo, cited from earlier work

half-life [1]: 90 min
mean Tmax ([1]; sc): 53 min
CL/F ([1]; sc, 0.12 ug): 227 mL/min
AUC(0-inf) ([1]; sc, 0.12 ug, SD): 0.0102 ± 0.0049 ng·h/mL
Tmax ([1]; sc, 0.12 ug, SD): 53 ± 20.9 min
SMILES: NC(=O)CC[C@@H]1NC(=O)[C@H](Cc2ccccc2)NC(=O)[C@H](Cc2ccc(O)cc2)NC(=O)CCSSC[C@@H](C(=O)N2CCC[C@H]2C(=O)N[C@H](CCCN=C(N)N)C(=O)NCC(N)=O)NC(=O)[C@H](CC(N)=O)NC1=O [Desmopressin, desmopressin]
intranasal bioavailability ([2]; human): 3.4%
relative bioavailability of intranasal administration, of SC injection [2]: approximately 2%
